Assay results reported in patent US12269805B2, “Inhibitors of platelet function and methods for use of the same” (THE REGENTS OF THE UNIVERSITY OF MICHIGAN, priority 2018, dated 2025).
Like-named read-outs stand apart in the source and are kept apart here.

Legend:
thrombus formation = conditions: cited from earlier work
[1] = Pharmacokinetic study: compound concentration in mouse blood plasma after PO and IV administration; type: in vivo, mice; conditions: for Concentration in Plasma, Mouse 2: value marked as outlier; for concentration at 2 h / concentration at 4 h / concentration at 7 h: mouse, plasma, 30 mg/kg
Experimental: The blood plasma concentration of compound A3 in mice was determined following per os, oral compound administration (“PO”) and intravenous (“IV”) administration
Calibration curve. The concentration range was evaluated from 1-5000 ng/ml for compound A3. The curve was built with linear regression with weighing (1/X2). The linear regression analysis was performed by plotting the peak area ratio (y) against the concentration (x) in ng/mL.
Instrument Conditions. The LC-MS and mass spectrometry conditions for the compounds tested are shown below.
Results. The individual and average compound A3 concentration-time data for IV and PO dosed groups are listed in Table 1, and graphically presented in FIG. 1.

[2] = tested on: phospho-VASP (serine 157) in washed human platelets; assay: Vasodilator-stimulated phosphoprotein phosphorylation in human platelets (Western blot); type: cell-based; conditions: washed human platelets treated for one minute; 5 nm to 20 μM tested
Experimental: Citrated whole blood was centrifuged (200 g for 10 min) to isolate platelet-rich plasma. Platelet-rich plasma was treated with acid citrate dextrose (2.5% sodium citrate, 1.5% citric acid, 2.0% D-glucose) and apyrase (0.02 U/mL), and then centrifuged (2000 g for 10 mins) to pellet the platelets. Platelets were resuspended at 3.0×10^8 platelets/mL in Tyrode's buffer (10 mM HEPES, 12 mM NaHCO3, 127 mM NaCl, 5 mM KCl, 0.5 mM NaH2PO4, 1 mM MgCl2, and 5 mM glucose) unless otherwise stated.
Washed platelets were treated with forskolin (0.5 μM), 12-HETre (20 μM), or compound A3 (5 nm, 10 nm, 25 nm, 50 nm, 100 n, 250 nm, 1 μM, 5 μM, 10 μM, and 20 μM) for one minute, then directly lysed in 5× Laemmli sample buffer (1.5 M Tris-HCl, pH 6.8, glycerol, 5% β-mercaptoethanol, 10% sodium dodecyl sulfate (SDS), and 1% bromophenol blue). The samples were boiled for five minutes and then run on a 10% SDS-PAGE gel. The levels of total and phospho-VASP (serine 157) were quantified by Western Blot using an Odyssey imaging system (LI-CoR). […] Compound A3 induced VASP phosphorylation at a concentration as low as 10 nm.

platelets = conditions: cited from earlier work

CCCCC/C=C\C[C@H](O)/C=C/C=C\CCCCCCC(=O)O [Compound 12-HETrE, 12(S)-hydroxyeicosatetrienoic acid]
Thrombus formation following vessel injury (thrombus formation; irrespective of 12-LOX expression): potently impaired thrombus formation

CC(C)N(CCCCSc1n[nH]c(=O)[nH]1)c1cnc(-c2ccccc2)c(-c2ccccc2)n1 [Compound A3, 5-((4-((5,6-diphenylpyrazin-2-yl)(isopropyl)amino)butyl)thio)-2,4-dihydro-3H-1,2,4-triazol-3-one]
Concentration in Plasma, Mouse 2 ([1]; PO 30 mg/kg, 2 h): *809.0 ng/ml | Concentration in Plasma, Mouse 2 ([1]; PO 30 mg/kg, 4 h): *812.7 ng/ml | concentration at 2 h ([1]; iv, IV 30 mg/kg, 2 h, n=3, read-out: Concentration in Plasma, Mean): 164 ng/mL | concentration at 2 h ([1]; iv, IV 30 mg/kg, 2 h, read-out: Concentration in Plasma, Mouse 1): 203 ng/mL | concentration at 2 h ([1]; iv, IV 30 mg/kg, 2 h, read-out: Concentration in Plasma, Mouse 2): 158 ng/mL | concentration at 2 h ([1]; iv, IV 30 mg/kg, 2 h, read-out: Concentration in Plasma, Mouse 3): 131 ng/mL | concentration at 4 h ([1]; iv, IV 30 mg/kg, 4 h, n=3, read-out: Concentration in Plasma, Mean): 106 ng/mL | concentration at 4 h ([1]; iv, IV 30 mg/kg, 4 h, read-out: Concentration in Plasma, Mouse 1): 135 ng/mL | concentration at 4 h ([1]; iv, IV 30 mg/kg, 4 h, read-out: Concentration in Plasma, Mouse 2): 80.3 ng/mL | concentration at 4 h ([1]; iv, IV 30 mg/kg, 4 h, read-out: Concentration in Plasma, Mouse 3): 102 ng/mL | concentration at 7 h ([1]; iv, IV 30 mg/kg, n=3, read-out: Concentration in Plasma, Mean): 97.6 ng/mL | concentration at 7 h ([1]; iv, IV 30 mg/kg, read-out: Concentration in Plasma, Mouse 1): 123 ng/mL | concentration at 7 h ([1]; iv, IV 30 mg/kg, read-out: Concentration in Plasma, Mouse 2): 76.9 ng/mL | concentration at 7 h ([1]; iv, IV 30 mg/kg, read-out: Concentration in Plasma, Mouse 3): 92.7 ng/mL | concentration at 2 h ([1]; po, PO 30 mg/kg, 2 h, outlier left out, read-out: Concentration in Plasma, Mean): 119 ng/mL | concentration at 2 h ([1]; po, PO 30 mg/kg, 2 h, read-out: Concentration in Plasma, Mouse 1): 186 ng/mL | concentration at 2 h ([1]; po, PO 30 mg/kg, 2 h, read-out: Concentration in Plasma, Mouse 3): 52.5 ng/mL | concentration at 4 h ([1]; po, PO 30 mg/kg, 4 h, outlier left out, read-out: Concentration in Plasma, Mean): 34.5 ng/mL | concentration at 4 h ([1]; po, PO 30 mg/kg, 4 h, read-out: Concentration in Plasma, Mouse 1): 46.5 ng/mL | concentration at 4 h ([1]; po, PO 30 mg/kg, 4 h, read-out: Concentration in Plasma, Mouse 3): 22.5 ng/mL | concentration at 7 h ([1]; po, PO 30 mg/kg, n=3, read-out: Concentration in Plasma, Mean): 28.3 ng/mL | concentration at 7 h ([1]; po, PO 30 mg/kg, read-out: Concentration in Plasma, Mouse 1): 46.3 ng/mL | concentration at 7 h ([1]; po, PO 30 mg/kg, read-out: Concentration in Plasma, Mouse 2): 19.1 ng/mL | concentration at 7 h ([1]; po, PO 30 mg/kg, read-out: Concentration in Plasma, Mouse 3): 19.3 ng/mL | Lowest concentration that induced VASP phosphorylation [2]: 10 nm

CCCCC/C=C\C/C=C\C/C=C\CCCCCCC(=O)O [DGLA, Dihomo-γ-linolenic acid]
Platelet aggregation ex vivo (platelets): inhibit platelet aggregation ex vivo | Thrombus formation (thrombus formation; 12-LOX−/− mice): unable to inhibit thrombus formation | Platelet thrombus formation in vivo (thrombus formation; following an insult to the vessel wall): inhibited platelet thrombus formation in vivo
